Counter-ions that a name gives are not always drawn.
Experiments:
[1] = test system: rat passive cutaneous anaphylaxis; experiment: rat passive cutaneous anaphylaxis (PCA) test; format: in vivo, rat (female Sprague-Dawley); design: key to Spot Score: total detectable spots divided by number of animals
Source text: The compound under review is first tested in the rat passive cutaneous anaphylaxis test system. This test is employed to determine if the compound does inhibit allergic manifestations. A DSCG biologue will inhibit allergic manifestations. The anti-allergy activity of DSCG biologues vary.
Female Sprague-Dawley 250 gm. rats are skin-sensitized with rat anti-ovalbumin homocytotropic antibody that is heat labile and has a passive cutaneous anaphylaxis titer of (1:128). After a 72-hour latency period, the animals are challenged i.v. with a 4 mg. ovalbumin (OA) + 5 mg. Evans blue dye. Thirty minutes later the extravascular bluing that results from antigen antibody combination at the skin site is read. Antibody dilutions are used such that in control animals a 4 mm spot in the lowest detectable spot, and 4 or 5 lower dilutions are used to give a range of antibody in each animal. Four to five animals are used for each variable in the experiment. Percent inhibition of the PCA assay is calculated by comparing the spot scores of DSCG treated rats with the spot scores of control rats. The spot score is the total number of detectable spots over the number of animals.
DSCG Priming Treatment: Passively sensitized rats are injected i.v. 2.0 hours before antigen challenge i.v. Two hours after an i.v. priming dose of 10 mg./kg. DSCG, the rats are challenged with antigen alone.
The time course of the effective life of DSCG in rats is shown in Table I. DSCG was administered i.p. and was followed by i.v. challenge with 4 mg. ovalbumin and 5 mg. of Evans Blue. Spot score was calculated 30 minutes later from a total of four animals for each time point.
The animals are rested 2 hours between primary i.v. DSCG injection and i.v. antigen challenge, including secondary DSCG dosing. In view of Table I, this time period is of such a length that the effect from the initial dose of DSCG is not a significant factor.
The effect of a time lag between priming doses and secondary doses with regard to the drug sparing effect and the responsiveness of the treated mammal to further treatment with DSCG or a DSCG biologue is shown in Table III. Rats were injected once daily with 10 mg./kg. DSCG for three days. Control rats were also injected with 1.0 ml. of saline at the same time. Twenty and 48 hours after the last dose of DSCG in the three dose series all rats were injected with DSCG. 4 mg. ovalbumin, and 5 mg. of Evans Blue dye.
Th sparing effect using a DSCG biologue, the tris(hydroxymethyl)aminomethane salt of 10-chloro-1,4,6,9-tetrahydro-4,6-dioxopyrido[3,2-g]quinoline-2,8-dicarboxylic acid, referred to as Compound 10 Cl in this Example, is shown in the rat PCA of Table IV. When using this compound in a priming situation, 2.0 mg./kg., 1.0 mg./kg., 0.025 mg./kg. and 0.01 mg./kg. give inhibitions of 93, 86, 44 and 0% respectively. The data of Table IV are obtained in the usual manner except that a 48 hour instead of a 72 hour sensitization period was used.

[2] = test system: allergic and anaphylactic conditions; conditions: cited from earlier work
[3] = man; cited from earlier work
[4] = 10 mg./kg. i.p., 5 min before i.v. challenge
[5] = 10 mg./kg. i.p., 7 min before i.v. challenge
[6] = 10 mg./kg. i.p., 10 min before i.v. challenge
[7] = 10 mg./kg. i.p., 15 min before i.v. challenge
[8] = 10 mg./kg. i.p., 18 min before i.v. challenge
[9] = 10 mg./kg. i.p., 20 min before i.v. challenge
[10] = 10 mg./kg. i.p., 25 min before i.v. challenge
[11] = 10 mg./kg. i.p., 30 min before i.v. challenge
[12] = 10 mg./kg. i.p., 60 min before i.v. challenge

SMILES: O=C(O)c1cc(=O)c2c(OCC(O)COc3cccc4oc(C(=O)O)cc(=O)c34)cccc2o1 [DSCG, disodium salt of 1,3-bis(2-carboxychromon-5-yloxy)-2-hydroxypropane]
- inhibition given as a priming dose ([1]; 0.1 mg. priming dose): does not provide any inhibition
- % Inhibition [1, 4]: 26%
- Spot Score [1, 4]: 1.67
- % Inhibition [1, 5]: 26%
- Spot Score [1, 5]: 1.67
- % Inhibition [1, 6]: 73%
- Spot Score [1, 6]: 0.66
- % Inhibition [1, 7]: 51%
- Spot Score [1, 7]: 1.00
- % Inhibition [1, 8]: 44%
- Spot Score [1, 8]: 1.25
- % Inhibition [1, 9]: 33%
- Spot Score [1, 9]: 1.50
- % Inhibition [1, 10]: 26%
- Spot Score [1, 10]: 1.67
- % Inhibition [1, 11]: 11%
- Spot Score [1, 11]: 2.0
- % Inhibition [1, 12]: 11%
- Spot Score [1, 12]: 2.0
- persistence of inhibiting effect ([1]; 10 mg./kg. i.p., in 30 minutes): most of the inhibiting effect of DSCG has disappeared
- inhibitory effect in rat PCA after priming dose alone ([1]; 10 mg./kg. i.v. priming, antigen challenge i.v. 2 hours later): No inhibitory effects are observed
- inhibition given as a priming dose ([1]; 10 mg./kg. priming dose): 79%
- % Inhibition ([1]; 10 mg./kg., i.v. at challenge): 100%
- Spot Score ([1]; 10 mg./kg., i.v. at challenge): 0
- drug sparing effect from the priming dosage ([1]; 20 hours post priming): present at 20 hours post priming
- drug sparing effect from the priming dosage ([1]; 48 hours post priming): has disappeared at 48 hours post priming
- effect of high priming doses on high secondary doses ([1]; high doses in priming and secondary dose situation): inhibit the action of high doses of DSCG in the secondary dose situation
- Inhibition in Rat PCA ([1]; priming 0.1 mg./kg. i.v., secondary DSCG 0.1 mg./kg. with antigen 2 hours later): 2%
- Inhibition in Rat PCA ([1]; priming 0.1 mg./kg. i.v., secondary DSCG 1.0 mg./kg. with antigen 2 hours later): 39%
- Inhibition in Rat PCA ([1]; priming 0.1 mg./kg. i.v., secondary DSCG 10 mg./kg. with antigen 2 hours later): 79%
- Inhibition in Rat PCA ([1]; priming 1.0 mg./kg. i.v., secondary DSCG 0.1 mg./kg. with antigen 2 hours later): 27%
- Inhibition in Rat PCA ([1]; priming 1.0 mg./kg. i.v., secondary DSCG 1.0 mg./kg. with antigen 2 hours later): 39%
- Inhibition in Rat PCA ([1]; priming 1.0 mg./kg. i.v., secondary DSCG 10 mg./kg. with antigen 2 hours later): 98%
- Inhibition in Rat PCA ([1]; priming 10 mg./kg. i.v., secondary DSCG 0.1 mg./kg. with antigen 2 hours later): 39%
- Inhibition in Rat PCA ([1]; priming 10 mg./kg. i.v., secondary DSCG 1.0 mg./kg. with antigen 2 hours later): 51%
- Inhibition in Rat PCA ([1]; priming 10 mg./kg. i.v., secondary DSCG 10 mg./kg. with antigen 2 hours later, mean percent from 15 animals): 51%
- % Inhibition in the Rat PCA ([1]; saline i.v. 3 times, then DSCG dose 0.1): 0%
- % Inhibition in the Rat PCA ([1]; saline i.v. 3 times, then DSCG dose 1.0): 11%
- % Inhibition in the Rat PCA ([1]; saline i.v. 3 times, then DSCG dose 5.0): 47%
- % Inhibition in the Rat PCA ([1]; saline i.v. 3 times, then DSCG dose 10): 82%
- % Inhibition in the Rat PCA ([1]; secondary DSCG dose 0, 48 hours after last of three daily 10 mg./kg. DSCG): 0%
- % Inhibition in the Rat PCA ([1]; secondary DSCG dose 0.05, 20 hours after last of three daily 10 mg./kg. DSCG): 47%
- % Inhibition in the Rat PCA ([1]; secondary DSCG dose 0.05, 48 hours after last of three daily 10 mg./kg. DSCG): 2%
- % Inhibition in the Rat PCA ([1]; secondary DSCG dose 0.1, 20 hours after last of three daily 10 mg./kg. DSCG): 52%
- % Inhibition in the Rat PCA ([1]; secondary DSCG dose 0.1, 48 hours after last of three daily 10 mg./kg. DSCG): 0%
- % Inhibition in the Rat PCA ([1]; secondary DSCG dose 1.0, 20 hours after last of three daily 10 mg./kg. DSCG): 58%
- % Inhibition in the Rat PCA ([1]; secondary DSCG dose 5.0, 20 hours after last of three daily 10 mg./kg. DSCG): 20%
- % Inhibition in the Rat PCA ([1]; secondary DSCG dose 5.0, 48 hours after last of three daily 10 mg./kg. DSCG): 65%
- % Inhibition in the Rat PCA ([1]; secondary DSCG dose 10, 20 hours after last of three daily 10 mg./kg. DSCG): 20%
- % Inhibition in the Rat PCA ([1]; secondary DSCG dose 10, 48 hours after last of three daily 10 mg./kg. DSCG): 73%
- relief from allergic and anaphylactic conditions ([2]; administered in a prophylactic manner): provides relief from allergic and anaphylactic conditions
- inhibition of allergic manifestations on continuing administration ([2]; same dose level, significant number of individuals): lower levels of inhibition which may be clinically ineffective
- serum half life [3]: approximately 2 minutes
